The values that follow come from article PMC4442108, “Preclinical Validation of the Heparin-Reactive Peptide p5+14 as a Molecular Imaging Agent for Visceral Amyloidosis” (Molecules, 2015).

Where no end group is shown, it is not given here. [ ]: non-standard residue; d: D form. Tyr(3-I) = N[C@@H](Cc1ccc(O)c(I)c1)C(=O)O

For test [1], the system named is synthetic rVλ6Wil fibrils. Format: binding, human. The settings on record: HSPG-free synthetic rVλ6Wil fibrils in suspension; PBST; 1 h RT; 125I-p5+14 ~5 ng. The protocol: Twenty-five microliters of 1 mg/mL AL extract, or synthetic rVλ6Wil variable domain fibrils were centrifuged in a 0.5 mL microfuge tube at 21,000× g for 5 min. The supernatant was discarded and pellet resuspended in 200 µL of PBS with 0.05% Tween-20 (PBST). Ten microliters of a 1:100 dilution of ^125I-p5+14 (~100,000 counts per minute (CPM); ~5 ng peptide) stock was added to the suspension. The mixture was rotated at RT for 1 h. Samples were then centrifuged twice at 15,000× g for 10 min. Supernatants and pellets were separated after each step and the radioactivity in each was measured using a Cobra II gamma counter (Perkin Elmer) with a 1 min acquisition. The percentage of ^125I-p5+14 bound to pellet was determined as follows: % Bound = Pellet CPM/(Pellet CPM + Supernatant CPM) × 100

Test [2] deals with T1, human ATTR amyloid extract (Homo sapiens, UniProt P02766).
T1 construct: as well as one cardiac ATTR extract, were analyzed in this assay; from tissue; host or cells: human heart, water flotation extract
Put plainly: Peptide ex vivo amyloid binding assay (pull-down), ATTR extract. The settings on record: ATTR heart extract; ~5 ng 125I-p5+14, 25 µL of 1 mg/mL extract, PBST, 1 h RT, pellet vs supernatant CPM; N = 2.

As to “GGG[Tyr(3-I)]SKAQKAQAKQAKQAQKAQKAQAKQAKQAQKAQKAQAKQAKQ [125I-p5+14]”, the “% bound” value in test [1] turned out to be 95.7%. Also, in test [2], the “% Bound (mean ± SD)” value is listed as 79.93 ± 1.23%.
